Assay results as given in patent US4605642A, “CRF antagonists” (The Salk Institute for Biological Studies, priority 1984, dated 1986).

Assays:
[1] = test system: secretion of ACTH by cultured rat pituitary cells; assay: Blocking of oCRF-stimulated ACTH secretion by cultured rat pituitary cells; format: cell-based
Protocol: (§1) The effectiveness of synthetic CRF antagonists to block the secretion of ACTH and β-endorphin by cultured rat pituitary cells is measured using the procedure as generally set forth in Vale et al., Endocrinology, 91, 562 (1972). In vivo testing is carried out using the general procedure set forth in C. Rivier et al., Science, 218, 377 (1982).

[2] = test system: secretion of β-endorphin by cultured rat pituitary cells; assay: Blocking of β-endorphin (β-END-LI) secretion by cultured rat pituitary cells; format: cell-based; settings: general procedure set forth in Example III
Protocol: as §1

[3] = Blood pressure lowering by antagonist; format: in vivo; settings: general procedure set forth in Example III
[4] = test system: GRF-stimulated secretion of GH; assay: Specificity: GRF-stimulated secretion of GH; format: cell-based; settings: specificity of inhibition
[5] = test system: GnRH-stimulated secretion of LH and FSH; assay: Specificity: GnRH-stimulated secretion of LH and FSH; format: cell-based; settings: specificity of inhibition
[6] = test system: TRF-stimulated secretion of TSH and prolactin; assay: Specificity: TRF-stimulated secretion of TSH and prolactin; format: cell-based; settings: specificity of inhibition
spontaneous ACTH release = assay: Spontaneous ACTH release by adrenalectomized rats; format: in vivo, rat; settings: iv 3 mg/kg BW (2.7 nmole)
Protocol: as §1
The in vivo effect of CRF antagonists is tested on the spontaneous ACTH release by adrenalectomized rats.

IC50 ([1]; cultured rat pituitary cells, 1 nM oCRF, five independent experiments, read-out: concentration that blocks the secretion of ACTH due to 1 nM oCRF by 50%)	Substance	inhibition of the secretion of ACTH (in words) ([1]; general procedure set forth in Example III)	inhibition of the secretion of β-END-LI (in words) [2]	lowering of blood pressure [3]	type of inhibition of oCRF-stimulated ACTH secretion ([1]; several concentrations of oCRF and of antagonist, constant oCRF 1 nM)	potency as CRF antagonist (in words) ([1]; test not stated at the place)	effect on the GRF-stimulated secretion of GH [4]	effect on the GnRH-stimulated secretion of LH and FSH [5]	effect on the TRF-stimulated secretion of TSH and prolactin [6]	plasma ACTH levels (spontaneous ACTH release) (spontaneous ACTH release)
–	H-Asp-CML-Thr-Leu-Glu-CML-Leu-Arg-Glu-Met-CML-Glu-Met-Ala-Lys-Ala-Glu-Gln- CML-Ala-Glu-Gln-Ala-Ala-CML-Asn-Arg-Leu-CML-Leu-Glu-Glu-Ala-NH2 [[CML^10,14,19,27,33,38]-AHC(9-41)]	inhibits the secretion	inhibits the secretion	very significant lowering of blood pressure	–	–	–	–	–	–
197 ± 72 nM	H-DLTFHLLREMLEMAKAEQEAEQAALNRLLLEEA-NH2 [AHC (9-41)]	–	–	–	competitive inhibition	particularly potent	no effect	no effect	no effect	marked decrease
